Reference: US11787766B2, “Compound having PD-L1 inhibitory activity, preparation method therefor and use thereof” (SHANGHAI ENNOVABIO PHARMACEUTICALS CO., LTD., priority 2017, dated 2023)

Each compound was assayed against PD-L1 (Homo sapiens (Human), UniProt Q9NZQ7) (assay: PD-1/PD-L1 homogeneous time-resolved fluorescence (HTRF) binding assay). Conditions: Cisbio PD1/PD-L1 binding assay kit.
PD-L1, sequence (Q9NZQ7 19-238): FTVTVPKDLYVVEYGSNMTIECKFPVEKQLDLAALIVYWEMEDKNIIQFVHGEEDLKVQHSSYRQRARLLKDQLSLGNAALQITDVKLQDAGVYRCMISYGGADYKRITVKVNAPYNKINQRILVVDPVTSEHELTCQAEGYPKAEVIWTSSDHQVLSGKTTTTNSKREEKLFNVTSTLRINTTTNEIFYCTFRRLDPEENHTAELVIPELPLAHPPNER
Excerpt: PD-1/PD-L1 homogeneous time-resolved fluorescence (HTRF) detection technology was used to detect the binding ability of the compound to PD-L1.
PD1/PD-L1 binding assay kit (Cisbio, Cat #63ADK000CPDEC) was used, which includes two proteins, Tag 1-PD-L1 and Tag 2-PD-1, and two antibodies, Anti-Tag1-Eu^3+ and Anti-Tag2-XL 665. Assay principle: Anti-tag1-Eu^3+ is the HTRF donor, and Anti-Tag2-XL 665 is the HTRF acceptor. When Tag 1-PD-L1 and Tag 2-PD-1 interact, the added HTRF donor and the acceptor are close to each other. After the donor receives the excitation energy, it transfers part of the energy to the acceptor, thus producing 665 nm emission signal. When the compound is added to block the PD1/PD-L1 interaction, only 620 nm emission light was detected. The inhibitory effect of the compound was determined by analyzing the ratio of 665 nm/620 nm. Tag 1-PD-L1 was diluted with Diluent buffer (cat #62DLBDDF) to a working concentration of 10 nM, Tag 2-PD-1 was diluted with Diluent buffer to a working concentration of 500 nM, and Anti-Tag1-Eu^3+ was diluted with detection buffer (cat #62DB1FDG) by 1:100, Anti-Tag2-XL 665 was diluted with detection buffer by 1:20, and the test compound was diluted with Diluent buffer to a final concentration of 2×. In a 384-well plate, 2 μL of compound was added to each well, and then 4 μL of Tag 1-PD-L1, 4 μL of Tag 2-PD-1 were added and incubated at room temperature for 15 minutes. 5 μL Anti-Tag1-Eu^3+ and 5 μL Anti-Tag2-XL 665 were added and incubated overnight at room temperature, and detected with BioTek Synergy™ Neo2 Multifunctional Microplate Reader to obtain the ratio of 665 nm/620 nm. The IC50 curve was fitted by GraphPad Prism 5.02.
With `COc1nc(OCc2cccc(-c3cccc(COc4ccc(CNCc5nnn[nH]5)c(OC)n4)c3Cl)c2Cl)ccc1CNCc1nnn[nH]1` [Compound 75] the IC50 was < 10 nM. For `COc1nc(OCc2cccc(-c3cccc(COc4ccc(CN5CC(CC(N)=O)C5)c(OC)n4)c3Cl)c2Cl)ccc1CN1CC(CC(N)=O)C1` [Compound 76], the IC50 was < 10 nM. `CNC(=O)CNCc1ccc(OCc2cccc(-c3cccc(COc4ccc(CNCC(=O)NC)c(OC)n4)c3Cl)c2Cl)nc1OC` [Compound 77] was tested, and the IC50 was < 10 nM. `COc1nc(OCc2cccc(-c3cccc(COc4ccc(CNCCS(N)(=O)=O)c(OC)n4)c3Cl)c2Cl)ccc1CNCCS(N)(=O)=O` [Compound 78] was tested, and the IC50 was < 10 nM. For `COc1nc(OCc2cccc(-c3cccc(COc4ccc(CN5C[C@@H](F)C[C@H]5C(=O)O)c(OC)n4)c3Cl)c2Cl)ccc1CN1C[C@@H](F)C[C@H]1C(=O)O` [Compound 79], the IC50 was < 10 nM. `CNS(=O)(=O)CCNCc1ccc(OCc2cccc(-c3cccc(COc4ccc(CNCCS(=O)(=O)NC)c(OC)n4)c3Cl)c2Cl)nc1OC` [Compound 80] was tested, and the IC50 was 10 to 100 nM. `COc1nc(OCc2cccc(-c3cccc(COc4ccc(CN5C[C@@H](F)C[C@H]5C(=O)O)c(OC)n4)c3Cl)c2Cl)ccc1CN1CCC(C(F)F)C1` (some centres unmarked) [Compound 81] was tested, and the IC50 was < 10 nM. For `COc1nc(OCc2cccc(-c3cccc(COc4ccc(CNCC(N)C(F)(F)F)c(OC)n4)c3Cl)c2Cl)ccc1CNCC(N)C(F)(F)F` (centres unmarked) [Compound 82], the IC50 was 10 to 100 nM.
